Earlier results as cited in patent publication US8647680B2, “Methods and compositions for treatment of lesioned sites of body vessels” (Abbott Cardiovascular Systems Inc., priority 2006, dated 2014).

Tests used:
[1] = tested on: macrophage cells; settings: oral administration

## N=C(N)NCCC[C@H](N)C(=O)O [L-arginine]
[1]
  apoptosis of macrophage cells: increased apoptosis of macrophage cells

## [N]=O [nitric oxide]
other
  solubility in water: 2000 to 3000 µM
